Laboratory results taken from patent US11058114B2, “Use of n-arylamidine-substituted trifluoroethyl sulphoxide derivatives for controlling pests by watering, droplet application, dip application, soil injection or by treating seed” (BAYER CROPSCIENCE AKTIENGESELLSCHAFT, priority 2014, dated 2021).

Columns and labels:
[1] = system: greenhouse red spider mite (Tetranychus urticae), OP-resistant; assay: Tetranychus urticae spray test, OP-resistant (TETRUR SPRAY); format: in vivo; conditions: bean plants (Phaseolus vulgaris), 100% = all spider mites killed; for pest or weed control at 0.8 ppm / pest or weed control at 4 ppm / pest or weed control at 0.16 ppm: Tetranychus urticae, 336 h, 14 d, read-out: % effect after 14 d
Method: Tetranychus urticae—Spray Test; OP-Resistant (TETRUR)
(§1) Solvent: 7 parts by weight of dimethylformamide
Emulsifier: alkylaryl polyglycol ether
To produce a suitable active compound preparation, 1 part by weight of active compound was dissolved using the stated parts by weight of solvent and made up with water containing an emulsifier concentration of 1000 ppm until the desired concentration was attained. To produce further test concentrations, the preparation was diluted with emulsifier-containing water. Ammonium salts and penetrants (rapeseed oil methyl ester) were each added in a concentration of 1000 ppm to the solution of the preparations.
Bean plants (Phaseolus vulgaris) which were heavily infested by all stages of the greenhouse red spider mite (Tetranychus urticae) were sprayed with an active compound preparation of the desired concentration.
(§2) After the desired period of time, the efficacy in % was determined. 100% means that all the spider mites have been killed; 0% means that no spider mites have been killed.

[2] = system: greenhouse red spider mite (Tetranychus urticae), OP-resistant; assay: Tetranychus urticae drench test, OP-resistant (TETRUR DRENCH); format: in vivo; conditions: bean plants (Phaseolus vulgaris) in soil pots, 100% = all spider mites killed; for pest or weed control at 0.8 ppm / pest or weed control at 4 ppm / pest or weed control at 0.16 ppm: Tetranychus urticae, in Phaseolus vulgaris, soil, 336 h, 14 d, read-out: % effect after 14 d
Method: Tetranychus urticae—Drench Test, OP-Resistant (TETRUR)
as §1
Emulsifier: 2 parts by weight of alkylaryl polyglycol ether
To produce a suitable active compound preparation, 1 part by weight of active compound was mixed with the specified amounts of solvent and emulsifier, and the concentrate was diluted with water to the desired concentration, with the volume of soil which was drenched being taken into account. It was ensured that a concentration of 40 ppm of emulsifier in the soil was not exceeded. To produce further test concentrations, water was used for dilution.
Bean plants (Phaseolus vulgaris), in soil pots, which were heavily infested by all stages of the greenhouse red spider mite (Tetranychus urticae) were watered with an active compound preparation of the desired concentration.
as §2

Compound: CN(C)/C(=N/c1cc([S+]([O-])CC(F)(F)F)c(Br)cc1Br)C(F)(F)F (centres unmarked) [Ib-25]
- pest or weed control at 0.8 ppm [1]: 50%
- pest or weed control at 0.8 ppm [2]: 99%

Compound: Cc1cc(F)c(/N=C(\N)C2(Cl)CC2)cc1[S+]([O-])CC(F)(F)F (centres unmarked) [Ib-22]
- pest or weed control at 0.8 ppm [1]: 0%
- pest or weed control at 4 ppm [1]: 30%
- pest or weed control at 0.8 ppm [2]: 90%
- pest or weed control at 4 ppm [2]: 90%

Compound: N/C(=N/c1cc([S+]([O-])CC(F)(F)F)c(Br)cc1Cl)C(F)(F)F (centres unmarked) [Ib-68]
- pest or weed control at 0.16 ppm ([1]; 0.16 ppm): 0%
- pest or weed control at 0.8 ppm [1]: 80%
- pest or weed control at 0.16 ppm ([2]; 0.16 ppm): 98%
- pest or weed control at 0.8 ppm [2]: 100%

Compound: CN/C(=N/c1cc([S+]([O-])CC(F)(F)F)c(Cl)cc1Cl)C(F)(F)F (centres unmarked) [Ib-21]
- pest or weed control at 0.16 ppm ([1]; 0.16 ppm): 0%
- pest or weed control at 0.8 ppm [1]: 90%
- pest or weed control at 0.16 ppm ([2]; 0.16 ppm): 80%
- pest or weed control at 0.8 ppm [2]: 95%

Compound: Cc1cc(F)c(/N=C(\N(C)C)C(F)(F)F)cc1[S+]([O-])CC(F)(F)F (centres unmarked) [Ib-01]
- pest or weed control at 0.8 ppm [1]: 0%
- pest or weed control at 4 ppm [1]: 98%
- pest or weed control at 0.8 ppm [2]: 100%
- pest or weed control at 4 ppm [2]: 100%

Compound: N/C(=N/c1cc([S+]([O-])CC(F)(F)F)c(Cl)cc1Br)C(F)(F)F (centres unmarked) [Ib-57]
- pest or weed control at 0.16 ppm ([1]; 0.16 ppm): 0%
- pest or weed control at 0.16 ppm ([2]; 0.16 ppm): 90%

Compound: Cc1cc(F)c(/N=C2\CCCN2CC(F)F)cc1[S+]([O-])CC(F)(F)F (centres unmarked) [Ib-33]
- pest or weed control at 0.16 ppm ([1]; 0.16 ppm): 0%
- pest or weed control at 0.8 ppm [1]: 0%
- pest or weed control at 0.16 ppm ([2]; 0.16 ppm): 60%
- pest or weed control at 0.8 ppm [2]: 95%

Compound: N/C(=N/c1ccc(C(F)(F)F)c([S+]([O-])CC(F)(F)F)c1)C(F)(F)F (centres unmarked) [Ib-16]
- pest or weed control at 0.16 ppm ([1]; 0.16 ppm): 0%
- pest or weed control at 0.8 ppm [1]: 40%
- pest or weed control at 0.16 ppm ([2]; 0.16 ppm): 99%
- pest or weed control at 0.8 ppm [2]: 100%

Compound: Cc1cc(F)c(/N=C(\N)C2(F)CC2)cc1[S+]([O-])CC(F)(F)F (centres unmarked) [Ib-19]
- pest or weed control at 0.16 ppm ([1]; 0.16 ppm): 0%
- pest or weed control at 0.8 ppm [1]: 30%
- pest or weed control at 0.16 ppm ([2]; 0.16 ppm): 98%
- pest or weed control at 0.8 ppm [2]: 98%

Compound: CN(C)/C(=N/c1cc([S+]([O-])CC(F)(F)F)c(Cl)cc1Cl)C(F)(F)F (centres unmarked) [Ib-26]
- pest or weed control at 0.8 ppm [1]: 0%
- pest or weed control at 0.8 ppm [2]: 95%

Compound: N/C(=N/c1cc([S+]([O-])CC(F)(F)F)c(Cl)cc1Cl)C(F)(F)F (centres unmarked) [Ib-17]
- pest or weed control at 0.16 ppm ([1]; 0.16 ppm): 0%
- pest or weed control at 0.8 ppm [1]: 98%
- pest or weed control at 0.16 ppm ([2]; 0.16 ppm): 98%
- pest or weed control at 0.8 ppm [2]: 100%

Compound: Cc1cc(F)c(/N=C2\SCC(=O)N2CC(F)(F)F)cc1[S@+]([O-])CC(F)(F)F [Ib-168]
- pest or weed control at 0.16 ppm ([1]; 0.16 ppm): 0%
- pest or weed control at 0.8 ppm [1]: 30%
- pest or weed control at 0.16 ppm ([2]; 0.16 ppm): 50%
- pest or weed control at 0.8 ppm [2]: 95%

Compound: N/C(=N/c1cc([S+]([O-])CC(F)(F)F)c(Br)cc1Br)C(F)(F)F (centres unmarked) [Ib-18]
- pest or weed control at 0.16 ppm ([1]; 0.16 ppm): 0%
- pest or weed control at 0.8 ppm [1]: 50%
- pest or weed control at 0.16 ppm ([2]; 0.16 ppm): 99%
- pest or weed control at 0.8 ppm [2]: 99%

Compound: CN/C(=N/c1cc([S+]([O-])CC(F)(F)F)c(Br)cc1Br)C(F)(F)F (centres unmarked) [Ib-24]
- pest or weed control at 0.8 ppm [1]: 30%
- pest or weed control at 0.8 ppm [2]: 100%

Compound: Cc1cc(F)c(/N=C(\N)C(F)(F)F)cc1[S+]([O-])CC(F)(F)F (centres unmarked) [Ib-11]
- pest or weed control at 0.8 ppm [1]: 50%
- pest or weed control at 4 ppm [1]: 95%
- pest or weed control at 0.8 ppm [2]: 100%
- pest or weed control at 4 ppm [2]: 100%

Compound: N/C(=N/c1cc([S+]([O-])CC(F)(F)F)c(Cl)cc1Cl)C(F)(F)F (centres unmarked) [Ib-14]
- % effect after 14 d ([1]; 0.16 ppm): 0%
- % effect after 14 d ([2]; 0.16 ppm): 80%

Compound: Cc1cc(F)c(/N=C2\CCCN2CC(F)(F)F)cc1[S+]([O-])CC(F)(F)F (centres unmarked) [Ib-115]
- pest or weed control at 0.8 ppm [1]: 0%
- pest or weed control at 4 ppm [1]: 0%
- pest or weed control at 0.8 ppm [2]: 90%
- pest or weed control at 4 ppm [2]: 90%

Compound: Cc1cc(F)c(/N=C(\N)c2cnccn2)cc1[S+]([O-])CC(F)(F)F (centres unmarked) [Ib-62]
- pest or weed control at 0.8 ppm [1]: 0%
- pest or weed control at 4 ppm [1]: 0%
- pest or weed control at 0.8 ppm [2]: 90%
- pest or weed control at 4 ppm [2]: 90%
